This is an account of results in patent US9993001B2, “Herbicidal composition” (ISHIHARA SANGYO KAISHA, LTD., priority 2014, dated 2018).

Molecules are shown by their SMILES.

Common to all, as to type: in vivo
The subject of assay [1] is redroot pigweed (Amaranthus retroflexus L.). In words: Test Example 9: corn field, soil treatment, metobromuron + S-metolachlor. To be noted: soil, read-out: Growth inhibition rate of redroot pigweed (%) Measured value. The source says: (§1) When the herbicidal activity in a case where two active ingredients are combined, is larger than the simple sum of the respective herbicidal activities of the two active ingredients (the expected activity), it is called a synergistic effect. The activity expected by the combination of two active ingredients can be calculated as follows (Colby S. R., “Weed”, vol. 15, p. 20-22, 1967). E=α+β−(α×β[…]) where α: growth inhibition rate when treated with x (g/ha) of herbicide X, • β: growth inhibition rate when treated with y (g/ha) of herbicide Y, • E: growth inhibition rate expected when treated with x (g/ha) of herbicide X and y (g/ha) of herbicide Y.
(§2) On the 19th day after treatment, the state of growth of barnyardgrass was visually observed and evaluated in accordance with the following standards. The growth inhibition rate (%) [measured value] and the growth inhibition rate (%) [calculated value] calculated by the Colby's method, are shown in Table 2.
(§3) Growth inhibition rate (%)=inhibition rate) (%) of 0 (equivalent to the non-treated area) to 100 (complete kill) […]
On the 49th day after treatment, the state of growth of redroot pigweed (Amaranthus retroflexus L.) which occurred naturally, was visually observed and evaluated in the same manner as in Test Example 1.

The subject of assay [2] is polygonaceae weeds. In words: Test Example 10: corn field, soil treatment, metobromuron + pendimethalin. The following applies: soil, read-out: Growth inhibition rate of Polygonaceae weeds (%) Measured value.
Description: as §1, §2, §3
On the 49th day after treatment, the state of growth of polygonaceae weeds which occurred naturally, was visually observed and evaluated in the same manner as in Test Example 1, The results are shown in Table 11.

In assay [3] the test system is large crabgrass (Diqitaria sanquinalis L.). Put plainly: Test Example 11: corn field, foliar treatment, metobromuron + nicosulfuron. The following applies: Digitaria sanguinalis, foliar, read-out: Growth inhibition rate of large crabgrass (%) Measured value.
Description: as §1, §2, §3
On the 30th day after treatment, the state of growth of large crabgrass was visually observed and evaluated in the same manner as in Test Example 1.

The subject of assay [4] is common purslane (Portulaca oleracea L.). In words: Test Example 12: corn field, soil treatment, metobromuron + nicosulfuron. The following applies: soil, read-out: Growth inhibition rate of common purslane (%) Measured value.
Description: as §1, §2, §3
On the 30th day after treatment, the state of growth of common purslane (Portulaca oleracea L.) which occurred naturally, was visually observed and evaluated in the same manner as in Test Example 1.

The subject of assay [5] is velvetleaf (Abutilon theophrasti MEDIC.). In words: Test Example 13: pot, soil treatment, metobromuron + pyroxasulfone. To be noted: soil, read-out: Growth inhibition rate of velvetleaf (%) Measured value.
Description: as §1, §2
(§4) Growth inhibition rate (%)=inhibition rate) (%) of 0 (equivalent to the non-treated area) to 100 (complete kill)
Soil was put into a 1/300,000 ha pot, and seeds of velvetleaf (Abutilon theophrasti MEDIC.) were sown. Prior to germination of velvetleaf, predetermined amounts of SC containing metobromuron as active ingredient (same as in Test Example 1) and WG containing pyroxasulfone as active ingredient (trade name: Sakura 850 WG, manufactured by Bayer CropScience) were diluted with water corresponding to 1,000 L per hectare and applied for soil treatment.
On the 12th day after treatment, the state of growth of velvetleaf was visually observed and evaluated in the same manner as in Test Example 1.

In assay [6] the test system is barnyardgrass (Echinochloa crus-galli L.). Put plainly: Test Example 15: pot, soil treatment, metobromuron + chlorpropham. To be noted: soil, read-out: Growth inhibition rate of barnyardgrass (%) Measured value.
Description: as §1, §2, §4
(§5) Soil was put into a 1/300,000 ha pot, and seeds of barnyardgrass (Echinochloa crus-galli L.) were sown. […]
(§6) On the 21st day after treatment, the state of growth of barnyardgrass was visually observed and evaluated in the same manner as in Test Example 1.

The test system of assay [7] is giant foxtail (Setaria faberi Herrm.). Put plainly: Test Example 16: pot, soil treatment, metobromuron + chlorpropham. To be noted: soil, read-out: Growth inhibition rate of giant foxtail (%) Measured value.
Description: as §1, §2, §4
Soil was put into a 1/300,000 ha pot, and seeds of barnyardgrass (Echinochloa crus-galli L.) were sown. On the day after seeding, predetermined amounts of SC containing metobromuron as active ingredient (same as in Test Example 1) and EC containing chlorpropham as active ingredient (same as in Test Example 1) were diluted with water corresponding to 1,000 L per hectare and applied for soil treatment.
as §6
The test was carried out in the same manner as in Test Example 15 except that barnyardgrass (Echinochloa crus-galli L.) was changed to giant foxtail (Setaria faberi Herrm.), to obtain the results as shown in Table 17.

Assay [8] relates to barnyardgrass (Echinochloa crus-galli L.). Put plainly: Test Example 18: pot, soil treatment, metobromuron + chlorpropham. To be noted: soil, read-out: Growth inhibition rate of barnyardgrass (%) Measured value.
Description: as §1, §2, §4, §5
On the 26th day after treatment, the state of growth of barnyardgrass was visually observed and evaluated in the same manner as in Test Example 1.

The test system of assay [9] is black nightshade (Solanum nigrum L.). In words: Test Example 31: pot, soil treatment, metobromuron + thiobencarb. To be noted: soil, read-out: Growth inhibition rate of black nightshade (%) Measured value.
Description: as §1, §2, §4
Soil was put into a 1/300,000 ha pot, and seeds of common lambsquarters (Chenopodium album L.) were sown. On the day after seeding, predetermined amounts of SC containing metobromuron as active ingredient (same as in Test Example 1) and EC containing thiobencarb as active ingredient (trade name: Saturn NYUZAI, manufactured by KUMIAI CHEMICAL INDUSTRY Co., Ltd.) were diluted with water corresponding to 1,000 L per hectare and applied for soil treatment.
On the 20th day after treatment, the state of growth of common lambsquarters was visually observed and evaluated in the same manner as in Test Example 1.
The test was carried out in the same manner as in Test Example 30 except that common lambsquarters (Chenopodium album L.) was changed to black nightshade (Solanum nigrum L.), to obtain the results as shown in Table 32.

The term inhibition denotes how much of the control response was suppressed. Take `CON(C)C(=O)Nc1ccc(Br)cc1` [Metobromuron, 3-(4-bromophenyl)-1-methoxy-1-methylurea]: the inhibition at 1000 g/ha worked out at 25% in assay [1]; 30% in [2]; 25% in [3]; 85% in assay [4]; 78% in assay [7]. The values for the inhibition at 375 g/ha in [5] and in [9] were 28% and 65%, respectively. In addition, the inhibition at 750 g/ha in assay [5] worked out at 55%. For the same molecule, the values for the inhibition at 1500 g/ha in assay [5] and in assay [6] were 74% and 72%, respectively. For the same molecule, the inhibition at 188 g/ha in assay [8] amounted to 0%. Besides, the inhibition at 562.5 g/ha in assay [9] came to 76%.
